These results are taken from publication PMC4431183 (2015).

Each structure is given as a SMILES string.

Assay [1] deals with HteloDNA (DNA, G4) GGGTTAGGGTTAGGGTTAGGG
In words: visible absorbance titration at 405 nm. Particulars: 100 mM K+, 10 mM Mg2+, 2 mM Na+; 50 mM MES-LiOH pH 7.0, 2 mM NaOH, 25 °C; 12.5 µM hemin.

For assay [2], the system named is dsDNA (DNA, duplex) AGAAGAGAAAGA/TCTTTCTCTTCT
In words: visible absorbance titration at 405 nm. To be noted: 100 mM K+, 10 mM Mg2+, 2 mM Na+; 50 mM MES-LiOH pH 7.0, 2 mM NaOH, 25 °C; 12.5 µM hemin; 0–250 µM dsDNA, change too small for Ka.

The test system of assay [3] is HteloDNA (DNA, G4) GGGTTAGGGTTAGGGTTAGGG
The assay is described as follows: visible absorbance titration at 424 nm. To be noted: 100 mM K+, 10 mM Mg2+; 50 mM MES-LiOH pH 7.0, 25 °C; 1.0 µM TMPyP4.

Assay [4] relates to dsDNA (DNA, duplex) AGAAGAGAAAGA/TCTTTCTCTTCT
The assay is described as follows: visible absorbance titration at 424 nm. Particulars: 100 mM K+, 10 mM Mg2+; 50 mM MES-LiOH pH 7.0, 25 °C; 1.0 µM TMPyP4.

`C=CC1=C(C)C2=Cc3c(C=C)c(C)c4[n]3[Fe]([Cl])[n]3c(c(C)c(CCC(=O)O)c3=CC3=NC(=C4)C(C)=C3CCC(=O)O)=CC1=N2`: the Ka result in assay [1] was “(5.5 ± 3.1) × 10^4 M^−1”. The binding entry in assay [2] is recorded as “weak”.

On to `C[n+]1ccc(-c2c3nc(c(-c4cc[n+](C)cc4)c4ccc([nH]4)c(-c4cc[n+](C)cc4)c4nc(c(-c5cc[n+](C)cc5)c5ccc2[nH]5)C=C4)C=C3)cc1`, for which the Ka entry in assay [3] is recorded as “(1.2 ± 0.1) × 10^6 M^−1”; in assay [4], “(1.8 ± 0.6) × 10^5 M^−1”.
